From US4800197A, “Anti-acne composition” (Richardson-Vicks Inc., priority 1987, dated 1989)

Key:
corneocytes = conditions: C. Huber et al, Arch. Derm. Res. 257, 293-297, 1977; cited from earlier work
[1] = in vitro human skin
Description: Excised human skin samples are obtained at autopsy and maintained under sterile conditions until used. […] The diffusion cell is composed of two compartments: the lower chamber is made of Plexiglass and the top is made of Teflon. The skin sample is mounted with the stratum corneum side exposed to the air and held on to the Teflon top with a rubber 0-ring; a tight seal between the two compartments is achieved by tightening the set screws. The cell has an effective diffusional area of 5.08 cm^2 and the dermis side of the skin is constantly bathed by filling the receptor compartment with 40 ml of isotonic saline. Adequate mixing of the receptor phase is accomplished with a magnet driven Teflon-coated stir bar moved by appropriate motor means located below the cell bath. The whole diffusion cell assembly is immersed in a water bath maintained at 30° C. using a circulating water bath. […] At hourly intervals over a period of seven hours, a one milliliter sample of the receptor fluid is withdrawn and analyzed for radioactive content by liquid scintillation counting means (Packard Tri-Carb model No. 460). […]
At the end of the seven hour period the skin sample is removed from the diffusion cell, trimmed of excess skin and glued with cyanoacrylate glue to a glass plate. […] Ten successive adhesive tape strippings are then taken and the salicylic acid content per strip determined. […]

Row | Compound | reduction in intercellular cohesion of the corneocytes (in words) (corneocytes) | deposition of salicylic acid in the stratum corneum (in words) [1] | rate of penetration of salicylic acid (in words) [1]
1 | O=C(O)c1ccccc1O [Salicylic acid] | causes a reduction in intercellular cohesion of the corneocytes | – | –
2 | CCCCCCCCCCCCOS(=O)(=O)[O-].[Na+] [surfactant D, sodium lauryl sulfate] | – | marked decrease in deposition of salicylic acid in the stratum corneum | marked increase in the penetration rate through the skin
